# Patent US11767298B2, “Substituted benzimidazoles as inhibitors of transforming growth factor-β kinase” (Duke University, priority 2016, dated 2023)
# “Also recorded” adds a separate entry of the source.
# Tests used:
# [1] = biological target: MINK1 (Homo sapiens, UniProt Q8N4C8); assay: Kinase profiling (Dundee), MINK1; assay type: biochemical; conditions: 10 μM
# Protocol: (§1) Kinase selectivity profiling. The selectivity profile of HS-206 to inhibit mammalian kinases was tested against a panel of 140 kinases at a single concentration of 10 μM. Tests were performed using a radiolabeld (^33P-ATP) filter-binding assay at the International Centre for Kinase Profiling at the University of Dundee, UK (http://www.kinase-screen.mrc.ac.uk/).
# (§2) This panel contains members of all major kinase families, including tyrosine kinases (TK), tyrosine kinase-like (TKL), sterile serine/threonine (STE), and CDK/MAPK/GSK/CLK (CMGC). […] For these kinases, IC50 values were determined (Table 1).
# [2] = tested on: K63-linked ubiquitination; assay: Western blot for K63-linked ubiquitination in Plasmodium blood stage; assay type: cell-based, P. falciparum; conditions: 0.001-100 μM, 24 hr, ring-stage blood stage parasites
# Protocol: P. falciparum asexual blood-stage culture. P. falciparum 3D7 isolate was maintained under standard conditions in complete culturing medium [10.44 g/L RPMI 1640 (Invitrogen), 5.94 g/L HEPES (Invitrogen), 50 mg/L hypoxanthine (Sigma), 2.02 g/L sodium bicarbonate (Sigma), 5 g/L albuMAX II (Invitrogen), 25 mg/L gentamicin (Sigma), pH 7.2]. Parasite cultures were supplied with human red blood cells (Gulf Coast Regional Blood Center) at 1% hematocrit. To obtain synchronous cultures, Plasmodium parasites (at least 50% parasites were at the early-ring stage) were pelleted at 300×g for 7 min using a low brake setting and treated with 25 volume 5% D-sorbitol (Sigma) at 37° C. for 10 min. Treated parasites were then harvested and washed with 25 volume of complete culturing medium using the aforementioned centrifugation protocol, and diluted with the complete medium to 1% hematocrit to maintain the parasite culture at 37° C. and 5% CO2.
# Protein extraction and Western blot for K63-linked ubiquitination in Plasmodium blood stage. […] Total protein lysates were heated in SDS loading buffer for 5 min at 80° C., analyzed on 4-20% Tris-Glycine polyacrylamide gels (Novex, Life Technologies) and subsequently transferred to nitrocellulose membranes. […]
# [3] = tested on: TAK1 downstream signaling (IKK, p38, NFκB) in Hela cells; assay: TNFα dependent signaling in Hela cells; assay type: cell-based
# Protocol: (§3) In order to investigate the effects of HS-206 on cellular signaling, MDA-MB-231 and Hela cells were pretreated with 10 μM HS-206 for 2 h and stimulated with TNFα (FIG. 8).
# [4] = biological target: IRAK1 (Homo sapiens, UniProt P51617); assay: Kinase profiling (Dundee), IRAK1; assay type: biochemical
# Chain of IRAK1 (P51617 whole entry): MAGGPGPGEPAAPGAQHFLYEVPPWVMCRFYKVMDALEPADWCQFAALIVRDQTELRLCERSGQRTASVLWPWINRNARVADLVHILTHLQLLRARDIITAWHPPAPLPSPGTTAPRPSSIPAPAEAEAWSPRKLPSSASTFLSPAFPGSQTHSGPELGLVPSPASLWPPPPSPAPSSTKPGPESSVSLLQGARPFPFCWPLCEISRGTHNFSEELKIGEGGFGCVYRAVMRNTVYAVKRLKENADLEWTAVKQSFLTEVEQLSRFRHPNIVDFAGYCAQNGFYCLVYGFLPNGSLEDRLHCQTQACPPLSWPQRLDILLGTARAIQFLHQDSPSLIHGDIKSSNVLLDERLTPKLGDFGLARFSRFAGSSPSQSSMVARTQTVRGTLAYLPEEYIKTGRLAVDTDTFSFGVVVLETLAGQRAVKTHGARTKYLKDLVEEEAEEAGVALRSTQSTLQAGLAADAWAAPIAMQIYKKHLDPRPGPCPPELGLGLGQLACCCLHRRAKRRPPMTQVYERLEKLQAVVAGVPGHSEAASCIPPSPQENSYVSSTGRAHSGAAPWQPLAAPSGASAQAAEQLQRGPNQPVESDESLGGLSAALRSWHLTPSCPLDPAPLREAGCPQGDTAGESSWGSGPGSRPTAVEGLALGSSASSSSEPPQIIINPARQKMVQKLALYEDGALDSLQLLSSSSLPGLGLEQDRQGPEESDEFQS
# Protocol: as §1, §2
# [5] = biological target: IRAK4 (Homo sapiens, UniProt Q9NWZ3); assay: Kinase profiling (Dundee), IRAK4; assay type: biochemical
# Chain of IRAK4 (Q9NWZ3 whole entry): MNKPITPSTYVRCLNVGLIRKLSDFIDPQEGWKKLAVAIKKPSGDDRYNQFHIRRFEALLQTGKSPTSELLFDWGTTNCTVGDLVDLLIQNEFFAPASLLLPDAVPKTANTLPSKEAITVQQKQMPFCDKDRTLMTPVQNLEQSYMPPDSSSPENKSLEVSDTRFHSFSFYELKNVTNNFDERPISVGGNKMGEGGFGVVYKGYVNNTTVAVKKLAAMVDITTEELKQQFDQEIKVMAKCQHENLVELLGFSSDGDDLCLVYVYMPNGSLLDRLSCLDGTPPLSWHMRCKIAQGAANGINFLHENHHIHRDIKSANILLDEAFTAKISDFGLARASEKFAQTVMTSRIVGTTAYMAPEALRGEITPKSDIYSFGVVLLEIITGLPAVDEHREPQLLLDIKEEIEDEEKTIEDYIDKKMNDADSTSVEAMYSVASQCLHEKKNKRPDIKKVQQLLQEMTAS
# Protocol: as §1, §2
# [6] = biological target: CLK2 (Homo sapiens, UniProt P49760); assay: Kinase profiling (Dundee), CLK2; assay type: biochemical; conditions: 10 μM
# Chain of CLK2 (P49760 whole entry): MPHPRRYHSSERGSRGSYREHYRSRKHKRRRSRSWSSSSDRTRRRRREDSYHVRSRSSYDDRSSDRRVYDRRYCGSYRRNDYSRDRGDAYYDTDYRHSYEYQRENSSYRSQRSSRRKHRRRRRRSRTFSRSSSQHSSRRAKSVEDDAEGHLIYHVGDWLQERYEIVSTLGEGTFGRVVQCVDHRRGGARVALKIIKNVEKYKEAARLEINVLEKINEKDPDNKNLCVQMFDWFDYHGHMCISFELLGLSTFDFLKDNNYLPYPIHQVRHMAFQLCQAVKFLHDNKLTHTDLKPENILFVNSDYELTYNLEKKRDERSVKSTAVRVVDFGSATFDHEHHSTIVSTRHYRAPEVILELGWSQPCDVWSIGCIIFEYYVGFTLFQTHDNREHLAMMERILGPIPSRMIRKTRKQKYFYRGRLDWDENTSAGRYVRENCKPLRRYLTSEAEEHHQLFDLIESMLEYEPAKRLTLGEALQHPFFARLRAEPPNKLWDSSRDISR
# Protocol: as §1, §2
# [7] = tested on: TAK1 downstream signaling (IKK, p38) in MDA-MB-231 cells; assay: TNFα dependent signaling in MDA-MB-231 cells; assay type: cell-based; conditions: 10 μM, 2 h pretreatment, TNFα stimulation
# Protocol: as §3
# Chain of MINK1 (Q8N4C8 whole entry): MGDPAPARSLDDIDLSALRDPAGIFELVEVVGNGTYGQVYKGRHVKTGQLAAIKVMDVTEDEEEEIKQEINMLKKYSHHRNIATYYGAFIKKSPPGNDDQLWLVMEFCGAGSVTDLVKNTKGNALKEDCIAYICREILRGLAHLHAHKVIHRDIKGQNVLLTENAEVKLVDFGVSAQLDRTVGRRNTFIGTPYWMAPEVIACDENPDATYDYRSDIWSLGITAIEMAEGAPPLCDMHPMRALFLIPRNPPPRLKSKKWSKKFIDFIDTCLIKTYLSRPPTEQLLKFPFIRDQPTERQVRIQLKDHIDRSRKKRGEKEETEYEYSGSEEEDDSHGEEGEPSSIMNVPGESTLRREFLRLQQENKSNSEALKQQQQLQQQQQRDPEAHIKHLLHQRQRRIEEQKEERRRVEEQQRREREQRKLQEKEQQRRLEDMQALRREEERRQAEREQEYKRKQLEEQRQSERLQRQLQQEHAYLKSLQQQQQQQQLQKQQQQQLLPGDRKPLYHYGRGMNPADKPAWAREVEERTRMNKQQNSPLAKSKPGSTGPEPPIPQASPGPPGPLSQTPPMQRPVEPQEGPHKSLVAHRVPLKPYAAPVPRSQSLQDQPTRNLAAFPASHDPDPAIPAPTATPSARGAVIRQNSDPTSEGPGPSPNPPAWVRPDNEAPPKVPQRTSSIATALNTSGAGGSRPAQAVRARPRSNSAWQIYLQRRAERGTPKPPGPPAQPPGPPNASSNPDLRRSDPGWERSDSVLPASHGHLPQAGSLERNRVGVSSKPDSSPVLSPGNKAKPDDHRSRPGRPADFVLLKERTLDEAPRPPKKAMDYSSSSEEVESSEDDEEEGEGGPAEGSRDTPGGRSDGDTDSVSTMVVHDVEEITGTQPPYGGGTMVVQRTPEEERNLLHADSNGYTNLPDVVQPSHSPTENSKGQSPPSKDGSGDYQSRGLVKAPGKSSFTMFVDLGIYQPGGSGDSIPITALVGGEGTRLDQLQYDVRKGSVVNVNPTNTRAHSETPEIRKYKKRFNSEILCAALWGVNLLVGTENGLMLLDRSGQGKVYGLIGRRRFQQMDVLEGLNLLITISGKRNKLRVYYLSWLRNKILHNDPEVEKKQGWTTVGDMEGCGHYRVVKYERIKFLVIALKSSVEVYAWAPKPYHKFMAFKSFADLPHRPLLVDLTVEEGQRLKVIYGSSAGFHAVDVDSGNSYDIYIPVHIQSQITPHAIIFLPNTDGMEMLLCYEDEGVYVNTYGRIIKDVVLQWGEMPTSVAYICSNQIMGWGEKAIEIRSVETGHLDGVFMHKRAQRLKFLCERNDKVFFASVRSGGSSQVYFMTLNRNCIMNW
compound,measurement,setting,value
"CCCn1c(NC(=O)c2cccc(C(N)=O)c2)nc2ccccc21 [HS-206 (1), (E)-N-(1-Propyl-1,3-dihydro-2H-benzo[d]imidazol-2-ylidene)isophthalamide]",inhibition at 10 µM,[1],> 90%
same,levels of K63-linked ubiquitinated proteins,[2],dose-dependent decrease
same,TNFα dependent signaling (activation of IKK and p38),"[3]; 10 μM, 2 h pretreatment, TNFα stimulation",inhibited activation of IKK and p38; also recorded: inhibits TNFα dependent signaling
same,dose-dependent inhibition of signaling upon TNFα stimulation,[3]; Hela cells,inhibits p38 and NFκB signaling in a dose-dependent manner; also recorded: dose-dependent inhibition of JNK and NFκB signaling
same,IC50,[4],390 ± 50 nM
same,inhibition at 10 µM,[4]; 10 μM,> 90%
same,IC50,[5],120 ± 30 nM
same,inhibition at 10 µM,[5]; 10 μM,> 90%
same,inhibition at 10 µM,[6],> 90%
same,TNFα dependent signaling (activation of IKK and p38),[7],inhibited activation of IKK and p38; also recorded: inhibits TNFα dependent signaling
